Results taken from US5610151A, “Monomeric bile acid derivatives, processes for their preparation and the use of these compounds as medicaments” (Hoechst Aktiengesellschaft, priority 1993, dated 1997).

Target: T1, Na+-dependent bile acid transportation system (Oryctolagus cuniculus, UniProt Q28727)
T1 construct: Brush border membrane vesicles were prepared from the intestinal cells of the small intestine; from tissue; host or cells: terminal 7/10 of the small intestine (ileum) of male New Zealand rabbits, mucosal brush border membrane vesicles
T1 sequence (Q28727 1-347): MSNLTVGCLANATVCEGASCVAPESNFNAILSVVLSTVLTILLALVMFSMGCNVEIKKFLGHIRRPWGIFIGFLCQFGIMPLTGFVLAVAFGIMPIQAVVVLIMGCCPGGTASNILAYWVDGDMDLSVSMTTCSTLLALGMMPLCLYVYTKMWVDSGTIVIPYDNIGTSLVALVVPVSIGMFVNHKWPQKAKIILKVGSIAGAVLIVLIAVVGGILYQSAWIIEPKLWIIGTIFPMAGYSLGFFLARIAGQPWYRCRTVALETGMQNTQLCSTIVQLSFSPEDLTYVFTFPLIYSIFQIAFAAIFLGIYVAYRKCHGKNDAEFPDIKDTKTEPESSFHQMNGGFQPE
Assay: Inhibition of [3H]-taurocholate uptake in brush border membrane vesicles from the ileum of rabbits
Format: biochemical
Details: Na+-dependent [3H]-taurocholate uptake (difference Na-T-P minus K-T-P), 50 μM taurocholate, rabbit ileum brush border membrane vesicles; drawing 7
Procedure: The compounds according to the invention were tested biologically by determination of the inhibition of [^3 H]taurocholate uptake in the brush border membrane vesicles from the ileum of rabbits. The inhibition test was carried out as follows:
1. Preparation of brush border membrane vesicles from the ileum of rabbits
Brush border membrane vesicles were prepared from the intestinal cells of the small intestine by the so-called Mg^2+ precipitation method. Male New Zealand rabbits (2 to 2.5 kg body weight) were sacrificed by intravenous injection of 0.5 ml of an aqueous solution of 2.5 mg of tetracaine HCl, 100 T 61^R and 25 mg of mebezonium iodide. The small intestine was removed and rinsed with ice-cold physiological saline solution. The terminal 7/10 of the small intestine (measured in the oral-rectal direction, i.e. the terminal ileum, which contains the active Na^+ -dependent bile acid transportation system) was used for preparation of the brush border membrane vesicle. The intestines were frozen in plastic bags under nitrogen at -80° C. For preparation of the membrane vesicles, the frozen intestines were thawed at 30° C. in a water bath. The mucosa was scraped off and suspended in 60 ml of ice-cold 12 mM Tris/HCl buffer (pH 7.1)/300 mM mannitol, 5 mM EGTA/10 mg/1 of phenylmethylsulfonyl fluoride/1 mg/1 of trypsin inhibitor from soybeans (32 U/mg)/0.5 mg/1 of trypsin inhibitor from bovine lung (193 U/mg)/5 mg/1 of bacitracin. After dilution to 300 ml with ice-cold distilled water, the mixture was homogenized with an Ultraturrax (18-rod, IKA Werk Staufen, FRG) for 3 minutes at 75% of the maximum output, while cooling with ice. After addition of 3 ml of 1M MgCl2 solution (final concentration 10 mM), the mixture was left to stand at 0° C. for exactly 1 minute. The cell membranes aggregate by addition of Mg^2+ and precipitate, with the exception of the brush border membranes. After centrifugation at 3000× g (5000 rpm, SS-34 rotor) for 15 minutes, the precipitate was discarded, and the supernatant, which contained the brush border membranes, was centrifuged at […] (15000 rpm, SS-34 rotor) for 30 minutes. The supernatant was discarded and the precipitate was rehomogenized in 60 ml of 12 mM Tris/HCl buffer (pH 7.1)/60 mM mannitol, 5 mM EGTA using a Potter Elvejhem homogenizer (Braun, Melsungen, 900 rpm, 10 strokes). After addition of 0.1 ml of 1 M MgCl2 solution and an incubation time of 15 minutes at 0° C., the mixture was centrifuged again at 3000× g for 15 minutes. The supernatant was then centrifuged again at 46000× g (15000 rpm, SS-34 rotor) for 30 minutes. The precipitate was taken up in 30 ml of 10 mM Tris/Hepes buffer (pH 7.4)/300 mM mannitol and resuspended homogeneously by 20 strokes in a Potter Elvejhem homogenizer at 1000 rpm. After centrifugation at 48000× g (20000 rpm, SS-34 rotor) for 30 minutes, the precipitate was taken up in 0.5 to 2 ml of Tris/Hepes buffer (pH 7.4)/280 mM mannitol (final concentration 20 mg/ml) and resuspended with the aid of a tuberculin syringe with a 27 gauge needle. The vesicles were either used immediately for transportation studies after preparation, or stored at -196° C. in portions of 4 mg in liquid nitrogen.
2. Inhibition of Na^+ -dependent [^3 H]-taurocholate uptake in the brush border membrane vesicles of the ileum
The uptake of substrates into the brush border membrane vesicles described above was determined by means of the so-called membrane filtration technique. 10 μl of the vesicle suspension (100 μg of protein) were pipetted as drops onto the wall of a polystyrene incubation tube (11×70 mm) which contained the incubation medium with the corresponding ligands (90 μl). […]

First: C[C@H](CCC(=O)O)[C@H]1CC[C@H]2[C@@H]3[C@H](O)C[C@@H]4C[C@@H](OCCCCCCCCCO)CC[C@]4(C)[C@H]3C[C@H](O)[C@]12C [Example 4]
Second: C[C@H](CCC(=O)O)[C@H]1CC[C@H]2[C@@H]3[C@H](O)C[C@@H]4C[C@@H](OCCCCCCCCO)CC[C@]4(C)[C@H]3C[C@H](O)[C@]12C [Example 3]
The “quotient of the IC50Na value of taurochenodesoxycholate (TCDC) standard and the particular substance” value (shortened to “quotient”) of the first is higher: 0.69 for the first, 0.35 for the second.

Compared with `C[C@H](CCC(=O)O)[C@H]1CC[C@H]2[C@@H]3[C@H](O)C[C@@H]4C[C@@H](OCCCCCCNC(=O)[C@H](O)[C@@H](O)[C@H](O)[C@H](O)CO)CC[C@]4(C)[C@H]3C[C@H](O)[C@]12C` [Example 43], `C[C@H](CCC(=O)O)[C@H]1CC[C@H]2[C@@H]3[C@H](O)C[C@@H]4C[C@@H](OCCCCCCNC(N)=O)CC[C@]4(C)[C@H]3C[C@H](O)[C@]12C` [Example 21] is lower in “quotient” value: 0.73 for the first, 0.33 for the second.

Going from `C[C@H](CCC(=O)O)[C@H]1CC[C@H]2[C@@H]3[C@H](O)C[C@@H]4C[C@@H](OCCCCCCNC(=O)c5cccc6ccccc56)CC[C@]4(C)[C@H]3C[C@H](O)[C@]12C` [Example 38] to `C[C@H](CCC(=O)O)[C@H]1CC[C@H]2[C@@H]3[C@H](O)C[C@@H]4C[C@H](CCNC(=O)c5cccc6ccccc56)CC[C@]4(C)[C@H]3C[C@H](O)[C@]12C` [Example 33], the “quotient” value falls from 0.41 to 0.35.

First: C[C@H](CCC(=O)O)[C@H]1CC[C@H]2[C@@H]3[C@H](O)C[C@@H]4C[C@@H](OCCCCCCOP(=O)(Oc5ccccc5)Oc5ccccc5)CC[C@]4(C)[C@H]3C[C@H](O)[C@]12C [Example 18]
Second: Cc1ccc(S(=O)(=O)NCCCCCCO[C@H]2CC[C@@]3(C)[C@@H](C2)C[C@@H](O)[C@@H]2[C@@H]3C[C@H](O)[C@]3(C)[C@@H]([C@H](C)CCC(=O)O)CC[C@@H]23)cc1 [Example 35]
The “quotient” value of the first is lower: 0.42 for the first, 1.02 for the second.

First: COc1ccc(Cl)cc1C(=O)NCCc1ccc(S(=O)(=O)NC(=O)NCCCCCCO[C@H]2CC[C@@]3(C)[C@@H](C2)C[C@@H](O)[C@@H]2[C@@H]3C[C@H](O)[C@]3(C)[C@@H]([C@H](C)CCC(=O)O)CC[C@@H]23)cc1 [Example 40]
Second: Cc1ccc(S(=O)(=O)N(C)CCCCCCO[C@H]2CC[C@@]3(C)[C@@H](C2)C[C@@H](O)[C@@H]2[C@@H]3C[C@H](O)[C@]3(C)[C@@H]([C@H](C)CCC(=O)O)CC[C@@H]23)cc1 [Example 36]
The “quotient” value of the first is higher: 0.50 for the first, 0.20 for the second.
